In US9403842B2, “Prasugrel in non-crystalline form and pharmaceutical composition thereof” (ratiopharm GmbH, priority 2009, dated 2016):

Assay: pH-dependent degradation
Format: physicochemical
Details: pH values of <3, after just 2 hours
Procedure: At pH values of <3, degradation of more than 1% is observed after just 2 hours. This restricts the possible excipients used in the production of pharmaceutical formulations.

CC(=O)Oc1cc2c(s1)CCN(C(C(=O)C1CC1)c1ccccc1F)C2 (stereo not drawn) [prasugrel, 2-acetoxy-5-(α-cyclopropylcarbonyl-2-fluorobenzyl)-4,5,6,7-tetrahydrothieno[3,2-c]pyridine]
degradation: more than 1%
